Source: patent US11752104B2, “Oral composition and methods for manufacturing the same and treatment” (MEDICAL AND PHARMACEUTICAL INDUSTRY TECHNOLOGY AND …, priority 2019, dated 2023)

Test: Particle size of milled tacrolimus particles by laser particle size analyzer (Malvern 3000)
Format: physicochemical
Details: for D90 / D10 / D50 / D [3, 3] / D [4, 3]: Malvern 3000
Method: The milling process is conducted under the water bath at the temperature of about 4 to 18° C. for decreasing high-released energy in case of the deactivation of the milled particles.
Table 1 illustrates the statistically analyzed diameter size of the milled particles after different milling time, detected by laser particle size analyzer, Malven 3000. After milling for 90 mins, the D90 of the particles is decreased to a level of less than 400 nm. Furthermore, it was observed that preferred D90 of milled particles would be limited in the range of 100 nm to 800 nm. If D90 is less than 100 nm, the issue of particle aggregation cannot be prevented. If D90 is greater than 800 nm, the favorable effect is not significant.

D90 of the particles (after milling for 90 mins): less than 400 nm
D90 (milling time 0 min (unmilled)): 17.000 μm
D10 (milling time 0 min): 2.300 μm
D50 (milling time 0 min): 6.600 μm
D [3, 3] (milling time 0 min): 4.860 μm
D [4, 3] (milling time 0 min): 8.880 μm
D10 (milling time 15 min): 0.157 μm
D50 (milling time 15 min): 0.338 μm
D90 (milling time 15 min): 0.967 μm
D [3, 3] (milling time 15 min): 0.294 μm
D [4, 3] (milling time 15 min): 0.578 μm
D10 (milling time 30 min): 0.119 μm
D50 (milling time 30 min): 0.255 μm
D90 (milling time 30 min): 0.572 μm
D [3, 3] (milling time 30 min): 0.219 μm
D [4, 3] (milling time 30 min): 0.328 μm
D10 (milling time 45 min): 0.123 μm
D50 (milling time 45 min): 0.270 μm
D90 (milling time 45 min): 0.608 μm
D [3, 3] (milling time 45 min): 0.230 μm
D [4, 3] (milling time 45 min): 1.360 μm
D10 (milling time 60 min): 0.094 μm
D50 (milling time 60 min): 0.198 μm
D90 (milling time 60 min): 0.426 μm
D [3, 3] (milling time 60 min): 0.170 μm
D [4, 3] (milling time 60 min): 0.232 μm
D10 (milling time 75 min): 0.088 μm
D50 (milling time 75 min): 0.183 μm
D90 (milling time 75 min): 0.390 μm
D [3, 3] (milling time 75 min): 0.158 μm
D [4, 3] (milling time 75 min): 0.216 μm
D10 (milling time 90 min): 0.083 μm
D50 (milling time 90 min): 0.174 μm
D90 (milling time 90 min): 0.364 μm
D [3, 3] (milling time 90 min): 0.149 μm
D [4, 3] (milling time 90 min): 0.202 μm
Compound: C=CC[C@@H]1/C=C(\C)C[C@H](C)C[C@H](OC)[C@H]2O[C@@](O)(C(=O)C(=O)N3CCCC[C@H]3C(=O)O[C@H](/C(C)=C/[C@@H]3CC[C@@H](O)[C@H](OC)C3)[C@H](C)[C@@H](O)CC1=O)[C@H](C)C[C@@H]2OC [tacrolimus]
